Source: patent US5407932A, “Quinolone derivatives and antibacterial agents containing the same” (Wakunaga Seiyaku Kabushiki Kaisha, priority 1989, dated 1995)
Converted amounts (≈) assume the structure as drawn.

Key:
[1] = Partition coefficient, phosphate buffer/n-octanol; format: physicochemical; details: n-octanol/50 mm phosphate buffer; 50 mM phosphate buffer (pH 7.4, μ=0.15)/n-octanol
Description: Following the method proposed by Akira Tsuji et al. in Antimicrob. Agents Chemother., 32, 190-194 (1988), 50 mM phosphate buffer (pH 7.4, μ=0.15)/n-octanol partition coefficients were measured.

[2] = test system: mice; test: Interaction with fenbufen and toxicological study (coadministration test with fenbufen); format: in vivo
Description: Fenbufen and the quinolone compounds were each diluted with a solution of 0.5% methylcellulose.
A dose of 200 mg/kg of fenbufen was administered by oral route to groups of 10 mice (female, ICR, 18-23 g) 90 minutes before administration of the quinolone compounds by oral route, at a dose of 500 mg/kg. […] Following the 24 hours number of survival animals was noted.

[3] = test system: E. coli NIH JC-2 (IFO 12734); test: Minimum inhibitory concentration, standard method of the Japan Society of Chemotherapy; format: cell-based; details: Escherichia coli, IFO12734
Description: (§1) With respect to certain representative compounds among the compounds [I] of the present invention, their minimum inhibitory concentrations (MIC; μg/ml) were measured in accordance with the standard method established by the Japan Society of Chemotherapy [CHEMOTHERAPY, 29(1), 76-79 (1981)]. The results are summarized in Table 1, in which the compound numbers are as shown in examples.

[4] = test system: S. aureus 209 P (IFO 12732); test: as above; format: cell-based; details: Staphylococcus aureus, IFO12732
Description: as §1

[5] = test system: P. aeruginosa (IFO 3445); test: as above; format: cell-based; details: Pseudomonas aeruginosa, IFO3445
Description: as §1

Compound	logD [1]	Induction of convulsion, number of positive mice ([2]; mouse, in vivo)	Mortality, number of dead mice ([2]; mouse, in vivo)	Mortality, number of dead mice ([2]; quinolone 500 mg/kg oral, 90 min after fenbufen 200 mg/kg oral, 24 hours)	Induction of convulsion, number of positive mice ([2]; quinolone 500 mg/kg oral, 90 min after fenbufen 200 mg/kg oral, during two hours)	MIC [3] [µg/mL]	MIC [4] [µg/mL]	MIC [5] [µg/mL]
C[C@H]1CN(c2c(F)c(N)c3c(=O)c(C(=O)O)cn(C4COC4)c3c2F)C[C@H]1N (single isomer, unassigned) [Compound 113, 5-Amino-7-{(-)-cis-3-amino-4-methylpyrrolidin-1-yl}-6,8-difluoro-1-(oxetan-3-yl)-1,4-dihydro-4-oxoquinoline-3-carboxylic acid]	-0.529	–	–	–	–	–	–	–
CCn1cc(C(=O)O)c(=O)c2cc(F)c(N3CCNCC3)nc21 [Enoxacin, enoxacin, reference compound]	–	10/10	10/10	–	–	–	–	–
C[C@H]1CN(c2c(F)c(N)c3c(=O)c(C(=O)O)cn(C4COC4)c3c2F)C[C@H]1N.O=S(=O)(O)O (single isomer, unassigned) [Compound 117, 5-Amino-7-{(-)-cis-3-amino-4-methylpyrrolidin-1-yl}-6,8-difluoro-1-(oxetan-3-yl) -1,4-dihydro-4-oxoquinoline-3-carboxylic acid sulfuric acid salt]	–	–	–	0/10	0/10	–	–	–
C[C@@H]1CN(c2c(F)cc3c(=O)c(C(=O)O)cn(C4COC4)c3c2F)C[C@H]1N.O=C(O)C(F)(F)F (relative stereo) [Compound 97, 7-(Trans-3-amino-4-methylpyrrolidin-1-yl)-6,8-difluoro-1-(oxetan-3-yl)-1,4-dihydro-4-oxoquinoline-3-carboxylic acid trifluoroacetic acid salt]	–	–	–	–	–	0.39	0.78	1.56
CN(C)C1CCN(c2nc3c(cc2F)c(=O)c(C(=O)O)cn3C2COC2)C1 (centres unmarked) [Compound 66]	–	–	–	–	–	0.39 (≈ 1.04 µM)	3.13 (≈ 8.32 µM)	3.13 (≈ 8.32 µM)
CN(C)C1CCN(c2c(F)cc3c(=O)c(C(=O)O)cn(C4COC4)c3c2F)C1 (centres unmarked) [Compound 19]	–	–	–	–	–	0.2 (≈ 0.508 µM)	1.56 (≈ 3.97 µM)	3.13 (≈ 7.96 µM)
NC1CCN(c2cc3c(cc2F)c(=O)c(C(=O)O)cn3C2COC2)C1 (centres unmarked) [Compound 37]	–	–	–	–	–	0.39 (≈ 1.12 µM)	1.56 (≈ 4.49 µM)	1.56 (≈ 4.49 µM)
O=C(O)c1cn(C2COC2)c2c(F)c(N3CCOCC3)c(F)cc2c1=O [Compound 6]	–	–	–	–	–	0.78 (≈ 2.13 µM)	0.78 (≈ 2.13 µM)	6.25 (≈ 17.1 µM)
NC1CCN(c2c(F)cc3c(=O)c(C(=O)O)cn(C4COC4)c3c2F)C1 (centres unmarked) [Compound 18]	–	–	–	–	–	0.39 (≈ 1.07 µM)	1.56 (≈ 4.27 µM)	1.56 (≈ 4.27 µM)
CN1CCN(c2c(F)cc3c(=O)c(C(=O)O)cn(C4COC4)c3c2F)CC1 [Compound 11]	–	–	–	–	–	0.2 (≈ 0.527 µM)	1.56 (≈ 4.11 µM)	1.56 (≈ 4.11 µM)
CNCC1CCN(c2c(F)c(N)c3c(=O)c(C(=O)O)cn(C4COC4)c3c2F)C1 (centres unmarked) [Compound 52]	–	–	–	–	–	0.78 (≈ 1.91 µM)	0.1 (≈ 0.245 µM)	3.13 (≈ 7.66 µM)
NCC1CCN(c2cc3c(cc2F)c(=O)c(C(=O)O)cn3C2COC2)C1 (centres unmarked) [Compound 38]	–	–	–	–	–	3.13 (≈ 8.66 µM)	0.39 (≈ 1.08 µM)	12.5 (≈ 34.6 µM)
NCC1CCN(c2c(F)cc3c(=O)c(C(=O)O)cn(C4COC4)c3c2F)C1 (centres unmarked) [Compound 20]	–	–	–	–	–	1.56 (≈ 4.11 µM)	0.2 (≈ 0.527 µM)	3.13 (≈ 8.25 µM)
CN1CCN(c2c(F)c(N)c3c(=O)c(C(=O)O)cn(C4COC4)c3c2F)CC1 [Compound 29]	-0.333	0/10	0/10	–	–	0.1 (≈ 0.254 µM)	0.78 (≈ 1.98 µM)	0.78 (≈ 1.98 µM)
O=C(O)c1cn(C2COC2)c2nc(N3CCCC3)c(F)cc2c1=O [Compound 72]	–	–	–	–	–	0.39 (≈ 1.17 µM)	0.2 (≈ 0.6 µM)	3.13 (≈ 9.39 µM)
Nc1c(F)c(N2CC(N)C2)c(F)c2c1c(=O)c(C(=O)O)cn2C1COC1 [Compound 49]	–	–	–	–	–	0.78 (≈ 2.13 µM)	1.56 (≈ 4.26 µM)	3.13 (≈ 8.54 µM)
O=C(O)c1cn(C2COC2)c2c(F)c(N3CC=CC3)c(F)cc2c1=O [Compound 5]	–	–	–	–	–	0.39 (≈ 1.12 µM)	0.39 (≈ 1.12 µM)	6.25 (≈ 17.9 µM)
CN[C@@H]1CN(c2c(F)cc3c(=O)c(C(=O)O)cn(C4COC4)c3c2F)C[C@H]1C (relative stereo) [Compound 91]	–	–	–	–	–	0.2 (≈ 0.508 µM)	0.78 (≈ 1.98 µM)	1.56 (≈ 3.97 µM)
Cl.N=CN1CCN(c2c(F)c(N)c3c(=O)c(C(=O)O)cn(C4COC4)c3c2F)CC1 [Compound 108, 5-Amino-6,8-difluoro-7-(4-formimidoylpiperazin-1-yl)-1-(oxetan-3-yl)-1,4-dihydro-4-oxoquinoline-3-carboxylic acid hydrochloride]	–	–	–	–	–	0.78	0.78	3.13
CNCC1CCN(c2c(F)cc3c(=O)c(C(=O)O)cn(C4COC4)c3c2F)C1 (centres unmarked) [Compound 46]	–	–	–	–	–	0.78 (≈ 1.98 µM)	0.1 (≈ 0.254 µM)	3.13 (≈ 7.96 µM)
CCNC1CCN(c2c(F)c(N)c3c(=O)c(C(=O)O)cn(C4COC4)c3c2F)C1 (centres unmarked) [Compound 51]	–	–	–	–	–	0.78 (≈ 1.91 µM)	1.56 (≈ 3.82 µM)	3.13 (≈ 7.66 µM)
C[C@H]1CN(c2c(F)c(N)c3c(=O)c(C(=O)O)cn(C4COC4)c3c2F)C[C@H]1N (relative stereo) [Compound 103]	–	–	–	–	–	0.1 (≈ 0.254 µM)	0.2 (≈ 0.507 µM)	0.39 (≈ 0.989 µM)
Nc1c(F)c(N2Cc3ccccc3C2)c(F)c2c1c(=O)c(C(=O)O)cn2C1COC1 [Compound 30]	–	–	–	–	–	0.78 (≈ 1.89 µM)	0.2 (≈ 0.484 µM)	3.13 (≈ 7.57 µM)
CCNCC1CCN(c2c(F)cc3c(=O)c(C(=O)O)cn(C4COC4)c3c2OC)C1 (centres unmarked) [Compound 79]	–	–	–	–	–	1.56 (≈ 3.72 µM)	0.1 (≈ 0.238 µM)	25 (≈ 59.6 µM)
COc1c(N2CCNCC2)c(F)cc2c(=O)c(C(=O)O)cn(C3COC3)c12 [Compound 81]	–	–	–	–	–	0.78 (≈ 2.07 µM)	0.78 (≈ 2.07 µM)	3.13 (≈ 8.29 µM)
O=C(O)c1cn(C2COC2)c2c(F)c(N3CCNCC3)c(F)cc2c1=O [Compound 12]	–	–	–	–	–	0.2 (≈ 0.547 µM)	1.56 (≈ 4.27 µM)	1.56 (≈ 4.27 µM)
